According to ChEMBL document CHEMBL1135203, “Benzodiazepine inhibitors of the MMPs and TACE” (Bioorg Med Chem Lett, 2002):
Calls of active or inactive are those of the source. The rule behind the calls is not given here.

Columns and labels:
THP-1 = assay: Compound was tested for its ability to inhibit TNF-alpha in a cellular assay using THP-1 cells at 3 uM; assay type: functional; conditions: Homo sapiens
Interstitial collagenase = molecular target: T1, Interstitial collagenase (Homo sapiens, UniProt P03956); assay: Concentration required in vitro to inhibit Matrix metalloprotease-1
T1 sequence (P03956 whole entry): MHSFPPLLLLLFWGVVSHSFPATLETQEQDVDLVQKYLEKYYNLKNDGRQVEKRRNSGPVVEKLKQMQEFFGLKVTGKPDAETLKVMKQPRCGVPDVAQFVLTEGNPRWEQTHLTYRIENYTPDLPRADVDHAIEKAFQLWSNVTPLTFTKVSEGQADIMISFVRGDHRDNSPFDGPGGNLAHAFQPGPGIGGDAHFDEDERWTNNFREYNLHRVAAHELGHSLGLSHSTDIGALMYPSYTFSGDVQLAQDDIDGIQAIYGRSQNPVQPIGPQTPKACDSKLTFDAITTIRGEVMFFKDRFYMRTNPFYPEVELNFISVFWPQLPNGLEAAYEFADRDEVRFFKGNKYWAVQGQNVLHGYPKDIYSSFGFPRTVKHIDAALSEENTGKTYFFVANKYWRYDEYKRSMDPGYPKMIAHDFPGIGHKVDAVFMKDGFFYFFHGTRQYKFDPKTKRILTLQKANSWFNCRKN

[1] = molecular target: Matrix metalloproteinase-9 (Homo sapiens, UniProt P14780); assay: Concentration required in vitro to inhibit Matrix metalloprotease-9
Sequence of Matrix metalloproteinase-9 (P14780 whole entry): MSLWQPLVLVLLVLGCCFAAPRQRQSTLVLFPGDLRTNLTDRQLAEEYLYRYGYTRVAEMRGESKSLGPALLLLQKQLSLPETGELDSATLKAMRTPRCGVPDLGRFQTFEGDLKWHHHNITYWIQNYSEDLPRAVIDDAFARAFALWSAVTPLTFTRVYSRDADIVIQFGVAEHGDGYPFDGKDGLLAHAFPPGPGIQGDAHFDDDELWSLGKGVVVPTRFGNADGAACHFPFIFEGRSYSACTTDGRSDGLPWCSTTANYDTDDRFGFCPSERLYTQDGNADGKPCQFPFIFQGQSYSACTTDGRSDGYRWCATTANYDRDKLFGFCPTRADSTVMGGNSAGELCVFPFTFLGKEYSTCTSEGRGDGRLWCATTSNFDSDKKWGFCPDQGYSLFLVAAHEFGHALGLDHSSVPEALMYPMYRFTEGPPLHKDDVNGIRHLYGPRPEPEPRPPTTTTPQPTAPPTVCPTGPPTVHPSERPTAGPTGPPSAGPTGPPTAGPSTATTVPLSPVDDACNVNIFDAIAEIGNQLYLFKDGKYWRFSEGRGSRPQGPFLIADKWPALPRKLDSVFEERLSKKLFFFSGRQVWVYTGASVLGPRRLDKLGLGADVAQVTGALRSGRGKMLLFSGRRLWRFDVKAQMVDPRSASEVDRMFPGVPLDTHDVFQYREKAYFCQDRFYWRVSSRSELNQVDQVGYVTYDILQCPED

Collagenase 3 = Collagenase 3 (Homo sapiens, UniProt P45452); assay: Concentration required in vitro to inhibit Matrix metalloprotease-13
[2] = molecular target: Disintegrin and metalloproteinase domain-containing protein 17 (Homo sapiens, UniProt P78536); assay: Concentration required in vitro to inhibit TNF-alpha converting enzyme (TACE)
Sequence of Disintegrin and metalloproteinase domain-containing protein 17 (P78536 whole entry, the tested form may be a part): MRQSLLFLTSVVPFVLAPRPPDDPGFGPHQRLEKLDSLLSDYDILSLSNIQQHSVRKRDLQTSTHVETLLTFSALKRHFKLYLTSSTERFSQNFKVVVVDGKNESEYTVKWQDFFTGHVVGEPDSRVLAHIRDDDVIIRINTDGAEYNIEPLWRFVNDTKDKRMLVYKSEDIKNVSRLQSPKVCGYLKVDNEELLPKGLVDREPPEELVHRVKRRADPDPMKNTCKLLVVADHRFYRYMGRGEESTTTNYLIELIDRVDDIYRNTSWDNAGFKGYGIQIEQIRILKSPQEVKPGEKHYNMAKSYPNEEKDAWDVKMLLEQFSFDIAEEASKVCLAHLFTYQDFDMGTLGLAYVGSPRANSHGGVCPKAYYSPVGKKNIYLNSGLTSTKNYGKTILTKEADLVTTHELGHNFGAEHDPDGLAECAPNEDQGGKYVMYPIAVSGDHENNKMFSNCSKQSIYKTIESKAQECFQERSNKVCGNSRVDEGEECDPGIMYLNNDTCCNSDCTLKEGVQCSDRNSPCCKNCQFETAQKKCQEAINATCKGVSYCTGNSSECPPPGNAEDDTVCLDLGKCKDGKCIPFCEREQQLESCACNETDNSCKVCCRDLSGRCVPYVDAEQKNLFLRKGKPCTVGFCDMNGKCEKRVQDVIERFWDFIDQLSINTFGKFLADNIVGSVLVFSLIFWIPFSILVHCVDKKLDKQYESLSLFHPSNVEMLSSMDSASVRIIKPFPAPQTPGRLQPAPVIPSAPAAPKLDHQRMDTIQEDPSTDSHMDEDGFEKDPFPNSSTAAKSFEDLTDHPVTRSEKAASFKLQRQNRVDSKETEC

Rattus norvegicus [3] = assay: Dialysis activity is detected at a dose of 50 mpk after 1 hr of po administration; assay type: functional; design: unit not given here
Bos taurus [4] = organism: Bos taurus; assay: Inhibition of cartilage degradation by the compound was detected using bovine cartilage explant model at 1 uM; assay type: functional, Cartilage tissue
Bos taurus [5] = organism: Bos taurus; assay: Compound was tested for inhibition of cartilage degradation using bovine cartilage explant model; assay type: functional, Cartilage tissue
Rattus norvegicus [6] = organism: Rattus norvegicus; assay: Dialysis activity is detected at a dose of 50 mpk; assay type: functional
Rattus norvegicus [7] = assay: Dialysis activity is detected at a dose of 50 mpk after 2 hr of ip administration; assay type: functional; design: unit not given here
Rattus norvegicus [8] = organism: Rattus norvegicus; assay: Dialysis activity is detected at a dose of 50 mpk; IA denotes inactive; assay type: functional, organism-based
Rattus norvegicus [9] = assay: Dialysis activity is detected at a dose of 50 mpk after 1 hr of ip administration; assay type: functional

Compound | IC50 [1] | IC50 (Collagenase 3) | IC50 (Interstitial collagenase) | IC50 [2] | further results
CC#CCOc1ccc(S(=O)(=O)N2Cc3ccccc3N(C(C)=O)CC2C(=O)NO)cc1 (stereo unspecified) |  |  |  |  | inhibition at 3 µM (THP-1): 60%
CC#CCOc1ccc(S(=O)(=O)N2Cc3ccccc3N(S(C)(=O)=O)CC2C(=O)NO)cc1 (stereo unspecified) | 95.5 nM | 34.6 nM | 260 nM | 20 nM | inhibition at 3 µM (THP-1): 44%
COc1ccc(S(=O)(=O)N(Cc2cccnc2)[C@@H](C(=O)NO)C(C)C)cc1.Cl [CGS-27023A] |  |  |  |  | Activity (Bos taurus [4]): 1; Inhibition (Bos taurus [5]): 63%; Activity (Rattus norvegicus [6]): 1
CC#CCOc1ccc(S(=O)(=O)N2Cc3ccccc3N(C(=O)C3CC3)CC2C(=O)NO)cc1 (stereo unspecified) | 33 nM | 29 nM | 841 nM | 10 nM | inhibition at 3 µM (THP-1): 59%
O=C(NO)C1CN(C(=O)c2ccccc2)c2ccccc2CN1S(=O)(=O)c1ccc(Oc2ccc(Cl)cc2)cc1 (stereo unspecified) |  |  | 59 nM | 528 nM | 
COc1ccc(S(=O)(=O)N2Cc3ccccc3N(C(=O)CCc3ccccc3)CC2C(=O)NO)cc1 (stereo unspecified) |  |  |  |  | Activity (Rattus norvegicus [7]): 0.22
CC#CCOc1ccc(S(=O)(=O)N2Cc3ccccc3N(C(=O)c3ccccc3)CC2C(=O)NO)cc1 (stereo unspecified) |  | 9.5 nM |  |  | inhibition at 3 µM (THP-1): 25%
COCC(=O)N1CC(C(=O)NO)N(S(=O)(=O)c2ccc(Oc3ccc(Cl)cc3)cc2)Cc2ccccc21 (stereo unspecified) |  |  | 61 nM | 157 nM | IA (Rattus norvegicus [8]): inactive
COCC(=O)N1CC(C(=O)NO)N(S(=O)(=O)c2ccc(Oc3ccncc3)cc2)Cc2ccccc21 (stereo unspecified) | 2 nM | 2 nM | 763 nM | 157 nM | Activity (Rattus norvegicus [3]): 0.32
O=C(NO)C1CN(C(=O)c2cccs2)c2ccccc2CN1S(=O)(=O)c1ccc(Oc2ccc(Cl)cc2)cc1 (stereo unspecified) | 2 nM | 4 nM | 35 nM | 254 nM | 
COc1ccc(S(=O)(=O)N2Cc3ccccc3N(C(=O)C3CC3)CC2C(=O)NO)cc1 (stereo unspecified) |  |  |  |  | Activity (Rattus norvegicus [9]): 0.8; Activity (Rattus norvegicus [3]): 0.49
COc1ccc(S(=O)(=O)N2Cc3ccccc3N(C(C)=O)CC2C(=O)NO)cc1 (stereo unspecified) |  |  | 18 nM |  | Activity (Rattus norvegicus [3]): 0.9; Activity (Rattus norvegicus [7]): 1.7

More lines, main results first:

IC50 [1] | IC50 (Collagenase 3) | Compound | IC50 (Interstitial collagenase) | IC50 [2] | further results
13 nM |  | COc1ccc(S(=O)(=O)N2Cc3ccccc3N(C(=O)C3CCCCC3)CC2C(=O)NO)cc1 (stereo unspecified) |  |  | Activity (Rattus norvegicus [3]): 0.47
2 nM | 2 nM | COCC(=O)N1CC(C(=O)NO)N(S(=O)(=O)c2ccc(OC)cc2)Cc2ccccc21 (stereo unspecified) |  |  | Activity (Bos taurus [4]): 2.5; Activity (Rattus norvegicus [3]): 1
2 nM | 2 nM | CCOc1ccc(C(=O)N2CC(C(=O)NO)N(S(=O)(=O)c3ccc(OC)cc3)Cc3ccccc32)cc1 (stereo unspecified) | 24 nM |  | 
0.6 nM |  | COc1ccc(S(=O)(=O)N2Cc3ccccc3N(C(=O)c3ccccc3)CC2C(=O)NO)cc1 (stereo unspecified) |  |  | Activity (Bos taurus [4]): 0.73; Inhibition (Bos taurus [5]): 46.3%; Activity (Rattus norvegicus [7]): 1.2
4 nM | 2 nM | COc1ccc(S(=O)(=O)N2Cc3ccccc3N(C(=O)c3cc(F)ccc3C)CC2C(=O)NO)cc1 (stereo unspecified) |  |  | 
 | 1 nM | COc1ccc(S(=O)(=O)N2Cc3ccccc3N(C(=O)c3cccs3)CC2C(=O)NO)cc1 (stereo unspecified) | 20 nM |  | Activity (Bos taurus [4]): 1.2; Activity (Rattus norvegicus [7]): 1.1
8 nM |  | COc1ccc(S(=O)(=O)N2Cc3ccccc3N(S(C)(=O)=O)CC2C(=O)NO)cc1 (stereo unspecified) |  |  | 
